Reference: PubChem BioAssay AID1963961 (Molecular Pharmacology Branch, DTP, NCI, 2024)

Tested on: K98450-129-R-PDC multicell spheroids, viability
Assay: Anticancer human tumor K98450-129-R-PDC patient-derived colon adenocarcinoma cell line growth inhibition [PI3K]
Details: for IC50: curve of first compound; for viability, T/C: stronger effect = lower value; active means viability on the fitted dose curve at most 10% of control; inactive means the rest
In short: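 Combination activity was assessed by viability in multicellular tumor spheroids carrying HUVEC and MSC components. Agents were tested with PI3K inhibitors from a Cmax-based top dose (or 10 microM) downward in half-log increments.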

[1] = second compound 0.0316 µM, first compound 0.0316 µM
[2] = second compound 0.0316 µM, first compound 0.1 µM
[3] = second compound 0.0316 µM, first compound 0.316 µM
[4] = second compound 0.0316 µM, first compound 1 µM
[5] = second compound 0.1 µM, first compound 0.0316 µM
[6] = second compound 0.1 µM, first compound 0.1 µM
[7] = second compound 0.1 µM, first compound 0.316 µM
[8] = second compound 0.1 µM, first compound 1 µM
[9] = second compound 0.316 µM, first compound 0.0316 µM
[10] = second compound 0.316 µM, first compound 0.1 µM
[11] = second compound 0.316 µM, first compound 0.316 µM
[12] = second compound 0.316 µM, first compound 1 µM
[13] = second compound 1 µM, first compound 0.0316 µM
[14] = second compound 1 µM, first compound 0.1 µM
[15] = second compound 1 µM, first compound 0.316 µM
[16] = second compound 1 µM, first compound 1 µM
[17] = second compound 3.16 µM, first compound 0.0316 µM
[18] = second compound 3.16 µM, first compound 0.1 µM
[19] = second compound 3.16 µM, first compound 0.316 µM
[20] = second compound 3.16 µM, first compound 1 µM
[21] = second compound 10 µM, first compound 0.0316 µM
[22] = second compound 10 µM, first compound 0.1 µM
[23] = second compound 10 µM, first compound 0.316 µM
[24] = second compound 10 µM, first compound 1 µM
[25] = second compound 0.0316 µM, first compound 3.16 µM
[26] = second compound 0.0316 µM, first compound 10 µM
[27] = second compound 0.1 µM, first compound 3.16 µM
[28] = second compound 0.1 µM, first compound 10 µM
[29] = second compound 0.316 µM, first compound 3.16 µM
[30] = second compound 0.316 µM, first compound 10 µM
[31] = second compound 1 µM, first compound 3.16 µM
[32] = second compound 1 µM, first compound 10 µM
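Further: spheroids exposed to agents for seven days before read-out.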

CCN1CCN(Cc2ccc(Nc3ncc(F)c(-c4cc(F)c5nc(C)n(C(C)C)c5c4)n3)nc2)CC1 + Cc1nc(NC(=O)N2CCCC2C(N)=O)sc1-c1ccnc(C(C)(C)C(F)(F)F)c1
inactive: viability, T/C (second compound 0.0316 µM, first compound 0.00316 µM) 115% | viability, T/C (second compound 0.0316 µM, first compound 0.01 µM) 97.7% | viability, T/C [1] 106% | viability, T/C [2] 91.1% | viability, T/C [3] 86.9% | viability, T/C [4] 94.8% | viability, T/C (second compound 0.1 µM, first compound 0.00316 µM) 115% | viability, T/C (second compound 0.1 µM, first compound 0.01 µM) 95.9% | viability, T/C [5] 99.8% | viability, T/C [6] 93.5% | viability, T/C [7] 96.8% | viability, T/C [8] 91.1% | viability, T/C (second compound 0.316 µM, first compound 0.00316 µM) 103% | viability, T/C (second compound 0.316 µM, first compound 0.01 µM) 102% | viability, T/C [9] 91.1% | viability, T/C [10] 87.7% | viability, T/C [11] 85.3% | viability, T/C [12] 96% | viability, T/C (second compound 1 µM, first compound 0.00316 µM) 98.3% | viability, T/C (second compound 1 µM, first compound 0.01 µM) 89.4% | viability, T/C [13] 91.2% | viability, T/C [14] 87.4% | viability, T/C [15] 84.6% | viability, T/C [16] 85.6% | viability, T/C (second compound 3.16 µM, first compound 0.00316 µM) 84.8% | viability, T/C (second compound 3.16 µM, first compound 0.01 µM) 80.6% | viability, T/C [17] 86.2% | viability, T/C [18] 84.7% | viability, T/C [19] 79.3% | viability, T/C [20] 83.5% | viability, T/C (second compound 10 µM, first compound 0.00316 µM) 73.7% | viability, T/C (second compound 10 µM, first compound 0.01 µM) 75.9% | viability, T/C [21] 70.6% | viability, T/C [22] 67.5% | viability, T/C [23] 67% | viability, T/C [24] 70.4%
> 1 µM: IC50 (second compound 0.0316 µM) | IC50 (second compound 0.1 µM) | IC50 (second compound 0.316 µM) | IC50 (second compound 1 µM) | IC50 (second compound 3.16 µM) | IC50 (second compound 10 µM)

C#Cc1c(F)ccc2cc(O)cc(-c3ncc4c(N5CC6CCC(C5)N6)nc(OCC56CCCN5CC(F)C6)nc4c3F)c12 (stereo unspecified) + Cc1nc(NC(=O)N2CCCC2C(N)=O)sc1-c1ccnc(C(C)(C)C(F)(F)F)c1
7.68 µM: IC50 (second compound 10 µM)
inactive: viability, T/C [1] 108% | viability, T/C [2] 97.4% | viability, T/C [3] 99.1% | viability, T/C [4] 95.5% | viability, T/C [25] 93.7% | viability, T/C [26] 83.2% | viability, T/C [5] 122% | viability, T/C [6] 97% | viability, T/C [7] 102% | viability, T/C [8] 88.7% | viability, T/C [27] 92.9% | viability, T/C [28] 82.2% | viability, T/C [9] 93.4% | viability, T/C [10] 96.2% | viability, T/C [11] 93.7% | viability, T/C [12] 83.8% | viability, T/C [29] 90.2% | viability, T/C [30] 77.7% | viability, T/C [13] 89.5% | viability, T/C [14] 92.4% | viability, T/C [15] 89% | viability, T/C [16] 85% | viability, T/C [31] 87.8% | viability, T/C [32] 76.5% | viability, T/C [17] 74.3% | viability, T/C [18] 78.9% | viability, T/C [19] 87.3% | viability, T/C [20] 75.3% | viability, T/C (second compound 3.16 µM, first compound 3.16 µM) 77.4% | viability, T/C (second compound 3.16 µM, first compound 10 µM) 63.5% | viability, T/C [21] 75.6% | viability, T/C [22] 69.2% | viability, T/C [23] 67.3% | viability, T/C [24] 63.1% | viability, T/C (second compound 10 µM, first compound 3.16 µM) 57.6% | viability, T/C (second compound 10 µM, first compound 10 µM) 47.3%
> 10 µM: IC50 (second compound 0.0316 µM) | IC50 (second compound 0.1 µM) | IC50 (second compound 0.316 µM) | IC50 (second compound 1 µM) | IC50 (second compound 3.16 µM)

CC1(C)CCC(CN2CCN(c3ccc(C(=O)NS(=O)(=O)c4ccc(NCC5CCOCC5)c([N+](=O)[O-])c4)c(Oc4cnc5[nH]ccc5c4)c3)CC2)=C(c2ccc(Cl)cc2)C1 + CC(Nc1ccc2c(c1)OCCn1cc(N3C(=O)OCC3C(F)F)nc1-2)C(N)=O
active: viability, T/C (second compound 0.00316 µM, first compound 10 µM) 6.21% | viability, T/C (second compound 0.01 µM, first compound 10 µM) 6.45% | viability, T/C [26] 9.42% | viability, T/C [28] 6.43% | viability, T/C [30] 4.55% | viability, T/C [32] 8.82%
5.72 µM: IC50 (second compound 0.00316 µM)
5.68 µM: IC50 (second compound 0.1 µM)
5.6 µM: IC50 (second compound 0.316 µM)
5.95 µM: IC50 (second compound 0.01 µM)
inactive: viability, T/C (second compound 0.00316 µM, first compound 0.0316 µM) 105% | viability, T/C (second compound 0.00316 µM, first compound 0.1 µM) 105% | viability, T/C (second compound 0.00316 µM, first compound 0.316 µM) 99.9% | viability, T/C (second compound 0.00316 µM, first compound 1 µM) 103% | viability, T/C (second compound 0.00316 µM, first compound 3.16 µM) 96.5% | viability, T/C (second compound 0.01 µM, first compound 0.0316 µM) 111% | viability, T/C (second compound 0.01 µM, first compound 0.1 µM) 98.7% | viability, T/C (second compound 0.01 µM, first compound 0.316 µM) 109% | viability, T/C (second compound 0.01 µM, first compound 1 µM) 104% | viability, T/C (second compound 0.01 µM, first compound 3.16 µM) 103% | viability, T/C [1] 106% | viability, T/C [2] 107% | viability, T/C [3] 106% | viability, T/C [4] 99.6% | viability, T/C [25] 99.8% | viability, T/C [5] 98.2% | viability, T/C [6] 104% | viability, T/C [7] 103% | viability, T/C [8] 102% | viability, T/C [27] 95.2% | viability, T/C [9] 97.9% | viability, T/C [10] 92.8% | viability, T/C [11] 101% | viability, T/C [12] 85.3% | viability, T/C [29] 96.3% | viability, T/C [13] 86.6% | viability, T/C [14] 88.1% | viability, T/C [15] 89.8% | viability, T/C [16] 90.2% | viability, T/C [31] 85.2%
5.96 µM: IC50 (second compound 0.0316 µM)
5.38 µM: IC50 (second compound 1 µM)
